According to the supplement of paper PMC10331698:
± gives the standard deviation of the averaged measurements.

What was measured:
Assay in all cases: level (log10 ratio to DMSO vehicle control); higher = higher biomarker level / cell amount than vehicle control
[1] = compound: C=CC(=O)OCC(F)(F)C(F)(F)C(F)(F)COC(=O)C=C [1H,1H,5H,5H-Perfluoro-1,5-pentanediol diacrylate]; details: 6700 nM; in DMSO
Protocol: (§1)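 BioMAP Diversity Plus panel of 12 human primary cell co-culture systems (3C, 4H, LPS, SAg, BT, BF4T, BE3C, CASM3C, HDF3CGF, KF3CT, MyoF, Mphg). Compounds were added 1 h before stimulation and left for 24 h (MyoF 48 h; BT 72 h for soluble read-outs or 6 d for IgG). Biomarkers were read by ELISA, cytotoxicity by SRB, PBMC viability and proliferation by Alamar Blue. Each well value was divided by the mean of 8 DMSO control wells on the same plate and log10 transformed; duplicate blinded samples were tested at 4 concentrations.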

[2] = compound: FC(F)(F)C(F)(F)C(F)(F)C(F)(F)C(F)(F)C(F)(F)CC1CO1 [3-(Perfluorohexyl)-1,2-epoxypropane]; details: in DMSO
Protocol: as §1

Octafluoroadipamide = compound: NC(=O)C(F)(F)C(F)(F)C(F)(F)C(F)(F)C(N)=O [Octafluoroadipamide]; details: in DMSO
Protocol: as §1

Nonafluoropentanamide = compound: NC(=O)C(F)(F)C(F)(F)C(F)(F)C(F)(F)F [Nonafluoropentanamide]; details: in DMSO
Protocol: as §1

[3] = compound: O=C(O)C=CC(F)(C(F)(F)F)C(F)(F)F [3-(Perfluoroisopropyl)-2-propenoic acid]; details: in DMSO
Protocol: as §1

[4] = compound: O=S(=O)(O)CCC(F)(F)C(F)(F)C(F)(F)C(F)(F)C(F)(F)C(F)(F)F [6:2 Fluorotelomer sulfonic acid]; details: in DMSO
Protocol: as §1

Hexafluoroamylene glycol = compound: OCC(F)(F)C(F)(F)C(F)(F)CO [Hexafluoroamylene glycol]; details: in DMSO
Protocol: as §1

| Test System | level (log10) [1] | level (log10) ([2]; 6700 nM) | level (log10) ([2]; 20000 nM) | level (log10) ([2]; 60000 nM) | level (log10) (Octafluoroadipamide; 6700 nM) | level (log10) (Octafluoroadipamide; 20000 nM) | level (log10) (Octafluoroadipamide; 60000 nM) | level (log10) (Nonafluoropentanamide; 6700 nM) | level (log10) (Nonafluoropentanamide; 20000 nM) | level (log10) (Nonafluoropentanamide; 60000 nM) | level (log10) ([3]; 6700 nM) | level (log10) ([3]; 20000 nM) | level (log10) ([3]; 60000 nM) | level (log10) ([4]; 6700 nM) | level (log10) ([4]; 20000 nM) | level (log10) ([4]; 60000 nM) | level (log10) (Hexafluoroamylene glycol; 6700 nM) | level (log10) (Hexafluoroamylene glycol; 20000 nM) | level (log10) (Hexafluoroamylene glycol; 60000 nM) |
| --- | --- | --- | --- | --- | --- | --- | --- | --- | --- | --- | --- | --- | --- | --- | --- | --- | --- | --- | --- |
| HDF3CGF:EGFR | -0.016 ± 0.025 | -0.0135 ± 0.011 | -0.01 ± 0.011 | -0.0055 ± 0.036 | -0.012 ± 0.082 | 0.0015 ± 0.054 | 0.0145 ± 0.087 | -0.067 ± 0.058 | -0.048 ± 0.016 | -0.002 ± 0.042 | -0.0025 ± 0.005 | 0.0015 ± 0.005 | 0.0265 ± 0.025 | -0.0455 ± 0.022 | -0.0535 ± 0.025 | -0.0305 ± 0.029 | -0.028 ± 0.02 | -0.0305 ± 0.04 | -0.0035 ± 0.005 |
| HDF3CGF:M-CSF | -0.482 ± 0.027 | 0 ± 0.014 | -0.002 ± 0.0042 | -0.019 ± 0.0085 | -0.017 ± 0.054 | -0.0215 ± 0.073 | 0.023 ± 0.0028 | -0.006 ± 0.017 | 0.01 ± 0.0014 | 0.0095 ± 0.021 | -0.0005 ± 0.0021 | 0.001 ± 0.0028 | 0 ± 0.0057 | -0.0255 ± 0.073 | -0.044 ± 0.068 | -0.082 ± 0.085 | -0.014 ± 0.02 | -0.0235 ± 0.066 | -0.0495 ± 0.077 |
| HDF3CGF:Proliferation 72hr | -0.689 ± 0.0099 | -0.014 ± 0.052 | -0.0355 ± 0.049 | 0 ± 0.069 | -0.041 ± 0.052 | 0.0825 ± 0.05 | -0.0115 ± 0.029 | -0.0375 ± 0.005 | -0.0485 ± 0.019 | -0.048 ± 0.028 | -0.033 ± 0.083 | 0.0165 ± 0.086 | 0.04 ± 0.073 | 0.0015 ± 0.019 | 0.0725 ± 0.03 | 0.0405 ± 0.036 | -0.0185 ± 0.021 | 0.0055 ± 0.025 | -0.008 ± 0.037 |
| HDF3CGF:TIMP-1 | -0.245 ± 0.011 | 0.0085 ± 0.025 | 0.0265 ± 0.025 | 0.0305 ± 0.012 | 0.002 ± 0.0071 | 0.0015 ± 0.012 | 0.0035 ± 0.021 | 0.0155 ± 0.059 | 0.0025 ± 0.05 | 0.0015 ± 0.0064 | -0.006 ± 0.014 | 0.0105 ± 0.015 | 0.007 ± 0.0057 | 0.0225 ± 0.08 | -0.0045 ± 0.076 | 0.0175 ± 0.13 | -0.0155 ± 0.05 | -0.0145 ± 0.06 | -0.017 ± 0.1 |
| HDF3CGF:TIMP-2 | 0.0805 ± 0.016 | 0.0235 ± 0.012 | 0.0065 ± 0.00071 | -0.006 ± 0.02 | -0.0695 ± 0.13 | -0.035 ± 0.061 | -0.002 ± 0.013 | -0.0315 ± 0.016 | 0.0165 ± 0.06 | 0.0025 ± 0.091 | -0.0105 ± 0.0021 | -0.0045 ± 0.011 | -0.0115 ± 0.012 | -0.021 ± 0.0099 | -0.0205 ± 0.032 | 0.0245 ± 0.029 | -0.0205 ± 0.029 | -0.024 ± 0.014 | 0.0025 ± 0.032 |
| KF3CT:CCL2/MCP-1 | -0.0955 ± 0.018 | 0.0005 ± 0.0092 | -0.0125 ± 0.03 | 0.0075 ± 0.053 | -0.017 ± 0.0085 | -0.026 ± 0.013 | -0.001 ± 0.021 | 0.0175 ± 0.032 | 0.02 ± 0.0042 | 0.0215 ± 0.018 | -0.012 ± 0.017 | 0 ± 0.027 | 0.0105 ± 0.053 | 0.0125 ± 0.00071 | 0.0035 ± 0.013 | -0.0145 ± 0.043 | 0.0125 ± 0.005 | 0.012 ± 0.0085 | 0.0085 ± 0.021 |
| KF3CT:CD54/ICAM-1 | -0.076 ± 0.0042 | 0.006 ± 0.0071 | 0.026 | 0.0085 ± 0.0092 | -0.0015 ± 0.0021 | -0.003 | 0.0115 ± 0.022 | -0.018 ± 0.0071 | -0.016 ± 0.0071 | -0.025 ± 0.0028 | 0.0075 ± 0.013 | 0.011 ± 0.018 | -0.0025 ± 0.029 | -0.0095 ± 0.0064 | -0.0265 ± 0.0035 | -0.037 ± 0.0071 | 0.0035 ± 0.021 | -0.0155 ± 0.012 | -0.013 ± 0.0099 |
| KF3CT:CXCL9/MIG | -0.0275 ± 0.013 | 0 | 0.01 ± 0.0057 | 0.0115 ± 0.0021 | 0.0075 ± 0.0064 | 0.0035 ± 0.005 | 0.0075 ± 0.005 | 0.006 ± 0.0042 | 0.011 ± 0.0085 | 0.007 ± 0.0099 | -0.0005 ± 0.012 | 0.0005 ± 0.011 | 0 ± 0.0028 | 0.0005 ± 0.013 | -0.0025 ± 0.022 | 0.0005 ± 0.013 | 0.0155 ± 0.00071 | -0.003 ± 0.0014 | 0.014 ± 0.011 |
| KF3CT:CXCL10/IP-10 | -0.023 ± 0.0085 | 0.0285 ± 0.00071 | 0.0305 ± 0.0035 | 0.0295 ± 0.0021 | -0.002 ± 0.0042 | 0.002 ± 0.0071 | 0.0005 ± 0.005 | -0.011 ± 0.0071 | 0.009 ± 0.0042 | -0.001 ± 0.017 | 0.0105 ± 0.035 | 0.0075 ± 0.032 | 0.0125 ± 0.023 | -0.0105 ± 0.011 | -0.0055 ± 0.015 | -0.0135 ± 0.00071 | 0.0015 ± 0.015 | -0.008 ± 0.0099 | -0.0035 ± 0.0092 |
| KF3CT:IL-1alpha | -0.125 ± 0.02 | -0.0185 ± 0.0078 | 0.0085 ± 0.018 | 0.0015 ± 0.0021 | 0.014 ± 0.0028 | 0 ± 0.037 | 0.017 ± 0.017 | 0.012 ± 0.0085 | 0.011 | 0.0095 ± 0.0064 | -0.0025 ± 0.0064 | 0.0025 ± 0.0092 | 0.001 ± 0.017 | 0.0115 ± 0.016 | 0.0005 ± 0.016 | -0.0255 ± 0.039 | -0.014 ± 0.031 | -0.018 ± 0.0099 | -0.017 ± 0.038 |
| KF3CT:MMP-9 | -0.0525 ± 0.043 | -0.014 ± 0.0042 | -0.0225 ± 0.00071 | -0.0155 ± 0.025 | -0.0325 ± 0.016 | -0.023 ± 0.0014 | -0.0115 ± 0.03 | -0.039 ± 0.027 | -0.0195 ± 0.0021 | -0.0245 ± 0.011 | -0.0175 ± 0.016 | 0.006 ± 0.0071 | 0.018 ± 0.014 | -0.0285 ± 0.019 | 0.0085 ± 0.018 | 0.026 ± 0.0028 | -0.0145 ± 0.005 | -0.011 ± 0.025 | -0.0155 ± 0.0035 |
| KF3CT:PAI-I | 0.014 ± 0.0028 | 0.0145 ± 0.032 | 0.019 ± 0.0014 | 0.0195 ± 0.0021 | -0.0155 ± 0.012 | -0.0145 ± 0.025 | 0.004 ± 0.02 | -0.042 ± 0.0099 | -0.0205 ± 0.036 | -0.0375 ± 0.00071 | 0.0045 ± 0.0092 | 0.023 ± 0.0085 | 0.0165 ± 0.0021 | 0.0025 ± 0.0021 | -0.012 ± 0.018 | -0.0135 ± 0.0092 | 0.002 ± 0.016 | -0.0055 ± 0.005 | 0.013 |
| KF3CT:SRB | -0.01 ± 0.0085 | -0.0075 ± 0.0021 | -0.008 | 0 ± 0.013 | 0.0015 ± 0.00071 | -0.004 ± 0.011 | 0.0125 ± 0.005 | -0.001 | -0.004 ± 0.0071 | 0.0085 ± 0.015 | -0.005 | -0.009 ± 0.0014 | 0.002 ± 0.013 | -0.004 | 0.0005 ± 0.0035 | 0.006 ± 0.016 | -0.0045 ± 0.00071 | -0.005 ± 0.0057 | 0.0025 ± 0.0078 |
| KF3CT:TIMP-2 | -0.056 ± 0.021 | -0.0095 ± 0.0064 | -0.014 ± 0.013 | 0.003 ± 0.041 | -0.0175 ± 0.00071 | -0.0085 ± 0.018 | 0.0265 ± 0.0021 | -0.0245 ± 0.0092 | -0.007 ± 0.011 | 0.011 ± 0.037 | -0.01 ± 0.013 | 0.007 ± 0.031 | 0.0205 ± 0.023 | -0.029 ± 0.0085 | -0.0035 ± 0.012 | 0.0015 ± 0.012 | -0.0095 ± 0.026 | -0.019 ± 0.0085 | -0.007 ± 0.014 |
| LPS:CD40 | -0.209 ± 0.024 | -0.0115 ± 0.012 | 0.01 ± 0.014 | -0.0045 ± 0.015 | -0.044 ± 0.016 | -0.022 ± 0.035 | 0 ± 0.0028 | 0.002 ± 0.038 | -0.008 ± 0.068 | 0.0015 ± 0.035 | -0.008 ± 0.0085 | 0.008 ± 0.048 | -0.017 ± 0.079 | 0.025 ± 0.048 | 0.0165 ± 0.037 | -0.015 ± 0.024 | 0.035 ± 0.024 | 0.0385 ± 0.04 | 0.028 ± 0.04 |
